Here are results for one molecule from article PMC4775085 (ACS chemical neuroscience, 2015).

Where “and” joins values, the source holds several entries; their conditions need not be identical. Identical values can stand only once.

The target in assay [1] is T1, HDAC6 (Homo sapiens, UniProt Q9UBN7).
T1 sequence (Q9UBN7 1-1215): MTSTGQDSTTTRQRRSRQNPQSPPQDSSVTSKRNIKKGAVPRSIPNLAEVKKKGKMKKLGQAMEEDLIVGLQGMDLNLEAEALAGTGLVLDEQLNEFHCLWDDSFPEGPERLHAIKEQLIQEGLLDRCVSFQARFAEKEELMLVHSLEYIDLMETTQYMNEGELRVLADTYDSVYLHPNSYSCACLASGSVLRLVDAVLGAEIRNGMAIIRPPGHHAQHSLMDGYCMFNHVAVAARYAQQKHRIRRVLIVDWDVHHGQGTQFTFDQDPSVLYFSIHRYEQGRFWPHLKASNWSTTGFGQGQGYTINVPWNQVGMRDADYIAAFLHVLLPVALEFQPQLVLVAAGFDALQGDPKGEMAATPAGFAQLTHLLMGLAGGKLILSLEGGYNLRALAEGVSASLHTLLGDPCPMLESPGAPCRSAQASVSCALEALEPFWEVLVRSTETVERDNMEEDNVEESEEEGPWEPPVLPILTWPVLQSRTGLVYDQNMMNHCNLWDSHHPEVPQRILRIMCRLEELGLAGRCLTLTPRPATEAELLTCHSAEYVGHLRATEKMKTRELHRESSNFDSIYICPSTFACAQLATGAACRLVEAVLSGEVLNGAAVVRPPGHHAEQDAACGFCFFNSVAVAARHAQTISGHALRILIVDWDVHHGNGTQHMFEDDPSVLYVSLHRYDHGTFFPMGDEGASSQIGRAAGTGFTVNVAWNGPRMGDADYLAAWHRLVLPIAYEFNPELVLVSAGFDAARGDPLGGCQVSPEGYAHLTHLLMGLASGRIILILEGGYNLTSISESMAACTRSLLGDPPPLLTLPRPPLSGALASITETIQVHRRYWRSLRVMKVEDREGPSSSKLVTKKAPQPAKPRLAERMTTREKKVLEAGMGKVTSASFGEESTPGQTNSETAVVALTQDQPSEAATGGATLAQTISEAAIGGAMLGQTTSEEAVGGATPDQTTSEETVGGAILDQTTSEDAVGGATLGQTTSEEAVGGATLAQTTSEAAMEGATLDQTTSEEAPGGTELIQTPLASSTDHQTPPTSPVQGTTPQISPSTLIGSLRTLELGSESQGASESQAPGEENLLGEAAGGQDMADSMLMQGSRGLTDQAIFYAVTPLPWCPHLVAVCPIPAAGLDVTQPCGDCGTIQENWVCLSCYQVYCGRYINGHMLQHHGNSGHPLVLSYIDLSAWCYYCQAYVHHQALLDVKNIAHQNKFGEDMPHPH
Kind of assay: HDAC6 enzymatic inhibition assay. Type of assay: biochemical.

The target of assay [2] is T2, HDAC11 (Homo sapiens, UniProt Q96DB2).
T2 sequence (Q96DB2 1-347): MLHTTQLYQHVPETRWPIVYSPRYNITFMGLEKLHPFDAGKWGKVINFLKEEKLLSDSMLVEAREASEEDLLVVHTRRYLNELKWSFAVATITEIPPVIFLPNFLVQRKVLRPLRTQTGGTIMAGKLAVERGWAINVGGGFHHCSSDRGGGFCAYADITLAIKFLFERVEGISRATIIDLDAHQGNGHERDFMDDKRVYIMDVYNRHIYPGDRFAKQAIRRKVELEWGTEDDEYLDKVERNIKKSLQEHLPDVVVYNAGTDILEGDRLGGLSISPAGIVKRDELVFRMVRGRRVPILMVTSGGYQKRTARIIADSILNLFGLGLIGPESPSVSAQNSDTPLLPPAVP
Kind of assay: HDAC11 enzymatic inhibition assay.

For orientation: IC50 means the point on the concentration scale where inhibition reaches its midpoint. A high value points to weaker potency in that assay. Consider `Cc1nc2ccc(F)cc2n1Cc1ccc(C(=O)NO)cc1` [30a, 4-[(6-Fluoro-2-methyl-1-benzimidazolyl)methyl]-N-hydroxybenzamide], for which the IC50 in assay [1] (HDAC6 IC50, singlet 10-dose IC50 mode, 3-fold serial dilution starting at 1 μM) was 3.12 nM; in assay [1] (IC50 (nM) HDAC6, mean of two experiments ± standard deviation, 10-point enzymatic assay starting from 30 μM, 3-fold serial dilution) it was 5 nM and 5.2 nM; in assay [2] it was 7490 nM. The “Selectivity HDAC1/HDAC6” value in assay [1] (ratio of HDAC1 and HDAC6 IC50 of Table 1 (fold)) worked out at 562.
